Results taken from ChEMBL document CHEMBL3132769, “Fragment growing to retain or alter the selectivity of anchored kinase hinge-binding fragments” (Medchemcomm, 2014).

Experiments:
[1] = molecular target: Mitogen-activated protein kinase 1 (Homo sapiens) (UniProt P28482); experiment: Inhibition of human full length ERK2 expressed in Escherichia coli cell assessed as substrate phosphorylation using fluorescence-labelled peptides as substrate at 9 uM after 90 mins by microfluidic peptide phosphorylation assay
Mitogen-activated protein kinase 1 (Homo sapiens), sequence (P28482 whole entry, the tested form may be a part): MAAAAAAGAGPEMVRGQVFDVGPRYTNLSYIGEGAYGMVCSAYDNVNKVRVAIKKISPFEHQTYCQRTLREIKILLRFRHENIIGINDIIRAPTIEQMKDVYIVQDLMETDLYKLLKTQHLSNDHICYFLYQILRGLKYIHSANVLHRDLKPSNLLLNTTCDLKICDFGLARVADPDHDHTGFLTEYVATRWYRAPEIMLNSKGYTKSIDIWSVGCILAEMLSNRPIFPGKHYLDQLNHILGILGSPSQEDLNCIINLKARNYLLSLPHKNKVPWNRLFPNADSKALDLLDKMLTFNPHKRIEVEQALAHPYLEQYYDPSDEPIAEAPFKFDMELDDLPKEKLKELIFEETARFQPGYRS

[2] = molecular target: Serine/threonine-protein kinase PAK 2 (Homo sapiens) (UniProt Q13177); experiment: Inhibition of human truncated PAK2 expressed in Escherichia coli cell assessed as substrate phosphorylation using fluorescence-labelled peptides as substrate at 2 uM after 90 mins by microfluidic peptide phosphorylation assay
Serine/threonine-protein kinase PAK 2 (Homo sapiens), sequence (Q13177 whole entry, the tested form may be a part): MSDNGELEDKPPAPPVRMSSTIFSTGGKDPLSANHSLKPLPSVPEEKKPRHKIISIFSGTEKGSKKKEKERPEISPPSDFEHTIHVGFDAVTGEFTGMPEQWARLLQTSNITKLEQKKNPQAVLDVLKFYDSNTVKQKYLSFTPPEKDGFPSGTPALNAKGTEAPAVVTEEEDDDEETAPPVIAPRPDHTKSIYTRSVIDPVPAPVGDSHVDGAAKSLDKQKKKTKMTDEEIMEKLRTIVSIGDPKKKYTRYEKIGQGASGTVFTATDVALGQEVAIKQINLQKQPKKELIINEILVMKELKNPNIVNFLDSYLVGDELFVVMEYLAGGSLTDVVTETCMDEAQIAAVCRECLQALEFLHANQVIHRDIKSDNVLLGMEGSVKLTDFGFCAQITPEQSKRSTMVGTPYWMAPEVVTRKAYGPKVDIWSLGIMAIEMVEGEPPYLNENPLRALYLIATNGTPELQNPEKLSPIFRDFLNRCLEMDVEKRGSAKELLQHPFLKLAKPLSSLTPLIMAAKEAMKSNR

[3] = molecular target: Tyrosine-protein kinase Fer (Homo sapiens) (UniProt P16591); conditions: 0.1 uM
Tyrosine-protein kinase Fer (Homo sapiens), sequence (P16591 whole entry, looked up): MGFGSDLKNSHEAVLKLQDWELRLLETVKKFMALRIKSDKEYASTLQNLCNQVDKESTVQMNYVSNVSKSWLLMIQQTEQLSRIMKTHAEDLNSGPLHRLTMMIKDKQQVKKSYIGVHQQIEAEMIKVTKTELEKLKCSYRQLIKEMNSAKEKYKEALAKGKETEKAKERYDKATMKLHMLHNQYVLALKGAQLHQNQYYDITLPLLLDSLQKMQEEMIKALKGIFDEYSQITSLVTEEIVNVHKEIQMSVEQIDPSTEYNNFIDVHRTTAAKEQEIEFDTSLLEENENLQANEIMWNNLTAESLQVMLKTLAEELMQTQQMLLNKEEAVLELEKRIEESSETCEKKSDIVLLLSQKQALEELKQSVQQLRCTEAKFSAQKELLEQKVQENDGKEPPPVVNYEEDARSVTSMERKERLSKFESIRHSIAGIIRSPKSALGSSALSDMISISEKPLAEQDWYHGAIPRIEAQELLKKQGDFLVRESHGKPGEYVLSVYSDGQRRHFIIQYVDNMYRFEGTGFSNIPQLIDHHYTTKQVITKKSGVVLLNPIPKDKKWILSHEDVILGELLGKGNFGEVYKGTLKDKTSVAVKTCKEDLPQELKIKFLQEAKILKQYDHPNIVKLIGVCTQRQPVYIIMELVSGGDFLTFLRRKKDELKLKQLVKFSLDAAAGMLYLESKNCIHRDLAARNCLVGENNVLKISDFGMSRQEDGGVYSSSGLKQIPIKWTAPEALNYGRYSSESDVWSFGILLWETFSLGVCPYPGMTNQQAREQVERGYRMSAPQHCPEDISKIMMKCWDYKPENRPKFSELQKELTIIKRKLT
Description: Inhibition of human FER catalytic domain expressed in baculovirus assessed as substrate phosphorylation using fluorescence-labelled peptides as substrate at 0.1 uM after 90 mins by microfluidic peptide phosphorylation assay

[4] = molecular target: Tyrosine-protein kinase Lyn (Homo sapiens) (UniProt P07948); conditions: 0.1 uM
Tyrosine-protein kinase Lyn (Homo sapiens), sequence (P07948 2-512 limits assumed): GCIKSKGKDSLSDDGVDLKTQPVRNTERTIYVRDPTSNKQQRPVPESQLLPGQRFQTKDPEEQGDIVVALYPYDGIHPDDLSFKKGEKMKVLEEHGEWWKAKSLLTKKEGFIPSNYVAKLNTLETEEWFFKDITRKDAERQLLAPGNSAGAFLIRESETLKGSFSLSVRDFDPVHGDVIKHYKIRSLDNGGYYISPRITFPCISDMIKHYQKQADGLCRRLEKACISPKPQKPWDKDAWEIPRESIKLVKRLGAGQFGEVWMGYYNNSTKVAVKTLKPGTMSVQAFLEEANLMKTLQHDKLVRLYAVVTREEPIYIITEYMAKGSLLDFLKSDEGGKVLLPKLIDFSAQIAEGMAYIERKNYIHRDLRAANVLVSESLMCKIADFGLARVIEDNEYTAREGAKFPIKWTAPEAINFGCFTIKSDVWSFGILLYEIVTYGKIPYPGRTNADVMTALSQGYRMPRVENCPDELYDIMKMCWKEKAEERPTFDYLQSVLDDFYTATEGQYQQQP
Description: Inhibition of human full length LYN expressed in baculovirus assessed as substrate phosphorylation using fluorescence-labelled peptides as substrate at 0.1 uM after 90 mins by microfluidic peptide phosphorylation assay

[5] = molecular target: Vascular endothelial growth factor receptor 2 (Homo sapiens) (UniProt P35968); experiment: Inhibition of human KDR cytoplasmic domain expressed in baculovirus assessed as substrate phosphorylation using fluorescence-labelled peptides as substrate at 0.1 uM after 90 mins by microfluidic peptide phosphorylation assay
[6] = molecular target: Calcium/calmodulin-dependent protein kinase type II subunit gamma (Homo sapiens) (UniProt Q13555); experiment: Inhibition of human CAMK2 gamma catalytic domain expressed in baculovirus assessed as substrate phosphorylation using fluorescence-labelled peptides as substrate at 95 uM after 90 mins by microfluidic peptide phosphorylation assay
Calcium/calmodulin-dependent protein kinase type II subunit gamma (Homo sapiens), sequence (Q13555 whole entry, the tested form may be a part): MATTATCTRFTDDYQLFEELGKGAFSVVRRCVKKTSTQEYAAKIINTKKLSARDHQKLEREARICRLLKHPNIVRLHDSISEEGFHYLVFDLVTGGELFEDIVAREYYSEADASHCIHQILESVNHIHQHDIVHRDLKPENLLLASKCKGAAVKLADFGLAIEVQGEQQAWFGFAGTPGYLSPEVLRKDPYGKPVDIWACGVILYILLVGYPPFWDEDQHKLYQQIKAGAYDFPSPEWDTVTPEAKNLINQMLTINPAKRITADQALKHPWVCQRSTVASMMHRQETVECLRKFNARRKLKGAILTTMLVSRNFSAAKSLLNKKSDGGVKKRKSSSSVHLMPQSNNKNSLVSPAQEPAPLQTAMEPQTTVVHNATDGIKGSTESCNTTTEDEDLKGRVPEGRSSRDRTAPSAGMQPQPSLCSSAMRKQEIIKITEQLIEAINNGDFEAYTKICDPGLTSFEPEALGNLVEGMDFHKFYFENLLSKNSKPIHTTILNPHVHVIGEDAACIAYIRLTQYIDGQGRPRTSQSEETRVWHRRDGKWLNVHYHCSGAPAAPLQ

[7] = molecular target: T1, MAP kinase-activated protein kinase 5 (Homo sapiens) (UniProt Q8IW41); experiment: Inhibition of human full length PRAK expressed in baculovirus assessed as substrate phosphorylation using fluorescence-labelled peptides as substrate at 95 uM after 90 mins by microfluidic peptide phosphorylation assay
T1 sequence (whole entry): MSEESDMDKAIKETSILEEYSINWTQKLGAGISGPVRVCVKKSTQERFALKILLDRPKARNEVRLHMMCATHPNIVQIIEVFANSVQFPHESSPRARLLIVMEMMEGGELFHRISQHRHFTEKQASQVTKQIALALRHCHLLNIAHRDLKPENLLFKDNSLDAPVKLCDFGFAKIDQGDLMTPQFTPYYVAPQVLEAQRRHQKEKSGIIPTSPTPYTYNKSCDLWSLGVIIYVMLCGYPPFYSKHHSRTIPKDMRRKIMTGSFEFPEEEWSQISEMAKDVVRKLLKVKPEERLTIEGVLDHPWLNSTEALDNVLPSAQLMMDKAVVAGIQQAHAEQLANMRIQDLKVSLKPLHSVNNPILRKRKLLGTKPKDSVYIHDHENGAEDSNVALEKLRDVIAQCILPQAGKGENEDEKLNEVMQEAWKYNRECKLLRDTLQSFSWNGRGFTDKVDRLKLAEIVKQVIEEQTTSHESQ

[8] = molecular target: Ribosomal protein S6 kinase alpha-3 (Homo sapiens) (UniProt P51812); experiment: Inhibition of human full length RSK2 expressed in baculovirus assessed as substrate phosphorylation using fluorescence-labelled peptides as substrate at 0.06 uM after 90 mins by microfluidic peptide phosphorylation assay
Ribosomal protein S6 kinase alpha-3 (Homo sapiens), sequence (P51812 whole entry, the tested form may be a part): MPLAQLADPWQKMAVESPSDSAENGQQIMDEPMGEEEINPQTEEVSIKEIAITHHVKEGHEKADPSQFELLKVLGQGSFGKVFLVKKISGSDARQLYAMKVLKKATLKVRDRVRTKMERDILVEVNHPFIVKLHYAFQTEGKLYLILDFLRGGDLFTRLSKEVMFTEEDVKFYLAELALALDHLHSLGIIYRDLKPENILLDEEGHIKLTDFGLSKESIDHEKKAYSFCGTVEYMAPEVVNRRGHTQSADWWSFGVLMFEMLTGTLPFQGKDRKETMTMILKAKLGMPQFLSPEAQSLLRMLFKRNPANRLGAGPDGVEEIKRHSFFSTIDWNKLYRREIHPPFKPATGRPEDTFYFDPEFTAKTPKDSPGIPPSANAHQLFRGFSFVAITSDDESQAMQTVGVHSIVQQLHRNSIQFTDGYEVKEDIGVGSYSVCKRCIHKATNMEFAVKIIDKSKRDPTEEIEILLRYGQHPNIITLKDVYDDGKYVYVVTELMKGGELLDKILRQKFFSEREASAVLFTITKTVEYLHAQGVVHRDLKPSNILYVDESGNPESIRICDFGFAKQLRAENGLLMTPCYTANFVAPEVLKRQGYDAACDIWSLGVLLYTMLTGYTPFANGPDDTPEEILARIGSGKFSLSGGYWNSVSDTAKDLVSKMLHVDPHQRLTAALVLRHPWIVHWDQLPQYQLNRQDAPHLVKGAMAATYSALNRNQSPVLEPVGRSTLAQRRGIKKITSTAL

[9] = molecular target: T2, Protein kinase C epsilon type (Homo sapiens) (UniProt Q02156); experiment: Inhibition of human truncated PKC epsilon expressed in baculovirus assessed as substrate phosphorylation using fluorescence-labelled peptides as substrate at 8 uM after 90 mins by microfluidic peptide phosphorylation assay
T2 sequence (whole entry): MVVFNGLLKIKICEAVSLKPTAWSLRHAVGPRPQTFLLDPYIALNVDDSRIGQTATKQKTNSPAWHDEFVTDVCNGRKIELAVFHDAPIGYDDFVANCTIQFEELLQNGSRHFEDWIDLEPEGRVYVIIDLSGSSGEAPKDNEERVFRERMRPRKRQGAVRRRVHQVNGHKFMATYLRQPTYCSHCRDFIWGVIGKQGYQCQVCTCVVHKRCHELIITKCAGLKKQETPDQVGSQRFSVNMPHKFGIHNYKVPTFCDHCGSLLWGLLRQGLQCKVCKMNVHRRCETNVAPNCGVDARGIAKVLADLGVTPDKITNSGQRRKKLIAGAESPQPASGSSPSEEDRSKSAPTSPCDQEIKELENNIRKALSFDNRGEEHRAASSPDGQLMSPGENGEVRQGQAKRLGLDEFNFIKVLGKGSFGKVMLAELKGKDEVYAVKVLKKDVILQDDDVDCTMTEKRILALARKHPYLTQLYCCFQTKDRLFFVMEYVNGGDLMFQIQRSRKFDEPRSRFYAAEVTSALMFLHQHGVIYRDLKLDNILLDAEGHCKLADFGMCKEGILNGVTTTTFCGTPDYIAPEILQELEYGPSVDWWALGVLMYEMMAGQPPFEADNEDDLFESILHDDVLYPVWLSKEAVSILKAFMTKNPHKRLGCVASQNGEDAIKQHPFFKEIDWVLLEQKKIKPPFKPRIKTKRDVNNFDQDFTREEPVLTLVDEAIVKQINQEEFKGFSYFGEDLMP

[10] = molecular target: Platelet-derived growth factor receptor alpha (Homo sapiens) (UniProt P16234); experiment: Inhibition of human PDGFR alpha catalytic domain expressed in baculovirus assessed as substrate phosphorylation using fluorescence-labelled peptides as substrate at 70 uM after 90 mins by microfluidic peptide phosphorylation assay
[11] = molecular target: Fibroblast growth factor receptor 4 (Homo sapiens) (UniProt P22455); experiment: Inhibition of human FGFR4 catalytic domain expressed in baculovirus assessed as substrate phosphorylation using fluorescence-labelled peptides as substrate at 70 uM after 90 mins by microfluidic peptide phosphorylation assay
[12] = molecular target: Fibroblast growth factor receptor 3 (Homo sapiens) (UniProt P22607); experiment: Inhibition of human FGFR3 catalytic domain expressed in baculovirus assessed as substrate phosphorylation using fluorescence-labelled peptides as substrate at 70 uM after 90 mins by microfluidic peptide phosphorylation assay
Fibroblast growth factor receptor 3 (Homo sapiens), sequence (P22607 23-806 limits assumed): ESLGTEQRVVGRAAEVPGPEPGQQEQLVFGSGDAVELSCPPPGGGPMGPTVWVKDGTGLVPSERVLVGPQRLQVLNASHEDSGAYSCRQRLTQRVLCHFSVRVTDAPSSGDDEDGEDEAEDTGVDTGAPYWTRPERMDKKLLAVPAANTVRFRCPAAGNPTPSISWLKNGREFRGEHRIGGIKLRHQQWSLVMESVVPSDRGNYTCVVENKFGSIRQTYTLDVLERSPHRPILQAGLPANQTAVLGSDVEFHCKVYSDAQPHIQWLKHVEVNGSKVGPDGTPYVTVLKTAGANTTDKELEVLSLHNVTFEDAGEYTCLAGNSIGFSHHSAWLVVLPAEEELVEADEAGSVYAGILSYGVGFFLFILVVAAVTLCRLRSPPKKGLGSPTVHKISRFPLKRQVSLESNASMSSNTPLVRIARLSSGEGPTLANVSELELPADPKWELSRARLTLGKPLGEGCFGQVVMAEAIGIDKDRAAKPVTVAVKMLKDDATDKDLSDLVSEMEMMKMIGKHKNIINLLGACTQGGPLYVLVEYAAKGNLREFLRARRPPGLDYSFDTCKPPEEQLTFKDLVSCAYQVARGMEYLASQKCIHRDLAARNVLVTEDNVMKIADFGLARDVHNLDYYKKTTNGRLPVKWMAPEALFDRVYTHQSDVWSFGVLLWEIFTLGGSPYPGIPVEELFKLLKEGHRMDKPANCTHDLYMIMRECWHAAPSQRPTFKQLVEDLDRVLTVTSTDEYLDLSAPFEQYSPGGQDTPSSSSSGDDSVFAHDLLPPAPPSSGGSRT

[13] = molecular target: Proto-oncogene tyrosine-protein kinase Src (Homo sapiens) (UniProt P12931); experiment: Inhibition of human full length SRC expressed in baculovirus assessed as substrate phosphorylation using fluorescence-labelled peptides as substrate at 1000 uM after 90 mins by microfluidic peptide phosphorylation assay
Proto-oncogene tyrosine-protein kinase Src (Homo sapiens), sequence (P12931 2-536 limits assumed): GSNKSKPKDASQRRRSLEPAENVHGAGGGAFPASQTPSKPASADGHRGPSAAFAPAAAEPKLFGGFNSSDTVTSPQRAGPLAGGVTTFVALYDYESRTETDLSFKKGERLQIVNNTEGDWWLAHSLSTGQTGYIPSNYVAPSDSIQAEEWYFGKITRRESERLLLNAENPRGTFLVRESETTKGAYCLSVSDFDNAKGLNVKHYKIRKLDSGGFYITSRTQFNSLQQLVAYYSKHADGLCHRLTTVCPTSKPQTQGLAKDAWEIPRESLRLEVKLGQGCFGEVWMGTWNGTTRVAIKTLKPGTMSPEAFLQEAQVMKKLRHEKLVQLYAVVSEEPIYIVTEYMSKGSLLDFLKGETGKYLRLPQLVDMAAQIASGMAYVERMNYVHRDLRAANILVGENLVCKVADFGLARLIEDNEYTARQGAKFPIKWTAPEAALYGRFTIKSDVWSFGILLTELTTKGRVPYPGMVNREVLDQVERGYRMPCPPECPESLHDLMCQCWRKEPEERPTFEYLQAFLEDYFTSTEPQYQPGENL

[14] = molecular target: T3, Testis-specific serine/threonine-protein kinase 2 (Homo sapiens) (UniProt Q96PF2); experiment: Inhibition of human full length TSSK2 expressed in baculovirus assessed as substrate phosphorylation using fluorescence-labelled peptides as substrate at 1000 uM after 90 mins by microfluidic peptide phosphorylation assay
T3 sequence (whole entry): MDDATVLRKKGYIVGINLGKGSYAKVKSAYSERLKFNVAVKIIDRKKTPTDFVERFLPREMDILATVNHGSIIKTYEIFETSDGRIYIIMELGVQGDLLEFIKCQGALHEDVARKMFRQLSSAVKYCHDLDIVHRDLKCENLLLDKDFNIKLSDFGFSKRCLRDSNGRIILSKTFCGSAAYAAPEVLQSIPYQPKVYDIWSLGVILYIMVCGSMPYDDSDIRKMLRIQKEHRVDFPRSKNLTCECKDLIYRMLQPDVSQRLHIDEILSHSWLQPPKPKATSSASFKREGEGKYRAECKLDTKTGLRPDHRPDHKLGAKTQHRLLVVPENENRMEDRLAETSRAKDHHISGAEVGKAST

With `NCC1CN(c2ncnc3[nH]c4cnccc4c23)CCO1` (centres undefined) the inhibition [1] was 1.5%.
`NC1CCN(c2ncnc3[nH]ccc23)CC1` showed an inhibition [2] of 3.5%.
`C[C@H](CN(C)C)Oc1nc(Nc2cc3cccc(Cl)c3cn2)cnc1C#N` showed an inhibition [3] of 0%, an inhibition [4] of 0% and an inhibition [5] of 14%.
With `NCCc1ccc(-c2ncnc3[nH]cnc23)cc1` the inhibition [6] was 30% and the inhibition [7] was 35%.
Work on `NC1(Cc2ccc(Cl)cc2)CCN(c2ncnc3[nH]ccc23)CC1` yielded an inhibition [8] of 0.5%.
`NCC1CCN(c2ncnc3[nH]ccc23)CC1` showed an inhibition [9] of 34%.
Compound `CNCc1ccc(-c2ncnc3[nH]cnc23)cc1` has an inhibition [10] of 16.5%, an inhibition [11] of 11.5% and an inhibition [12] of 27.5%.
For `c1cnc2[nH]ccc2c1`, the inhibition [13] was 28.5% and the inhibition [14] was 37%.
